Measurements published in ChEMBL document CHEMBL3991601, “The target landscape of clinical kinase drugs” (Science, 2017).
Values belong to the compound of their own block, whether it stands above or below them. Calls of active or inactive are those of the source.

Key:
[1] = molecular target: T1, Eukaryotic translation initiation factor 5B (Homo sapiens, UniProt O60841)
T1 sequence (O60841 whole entry): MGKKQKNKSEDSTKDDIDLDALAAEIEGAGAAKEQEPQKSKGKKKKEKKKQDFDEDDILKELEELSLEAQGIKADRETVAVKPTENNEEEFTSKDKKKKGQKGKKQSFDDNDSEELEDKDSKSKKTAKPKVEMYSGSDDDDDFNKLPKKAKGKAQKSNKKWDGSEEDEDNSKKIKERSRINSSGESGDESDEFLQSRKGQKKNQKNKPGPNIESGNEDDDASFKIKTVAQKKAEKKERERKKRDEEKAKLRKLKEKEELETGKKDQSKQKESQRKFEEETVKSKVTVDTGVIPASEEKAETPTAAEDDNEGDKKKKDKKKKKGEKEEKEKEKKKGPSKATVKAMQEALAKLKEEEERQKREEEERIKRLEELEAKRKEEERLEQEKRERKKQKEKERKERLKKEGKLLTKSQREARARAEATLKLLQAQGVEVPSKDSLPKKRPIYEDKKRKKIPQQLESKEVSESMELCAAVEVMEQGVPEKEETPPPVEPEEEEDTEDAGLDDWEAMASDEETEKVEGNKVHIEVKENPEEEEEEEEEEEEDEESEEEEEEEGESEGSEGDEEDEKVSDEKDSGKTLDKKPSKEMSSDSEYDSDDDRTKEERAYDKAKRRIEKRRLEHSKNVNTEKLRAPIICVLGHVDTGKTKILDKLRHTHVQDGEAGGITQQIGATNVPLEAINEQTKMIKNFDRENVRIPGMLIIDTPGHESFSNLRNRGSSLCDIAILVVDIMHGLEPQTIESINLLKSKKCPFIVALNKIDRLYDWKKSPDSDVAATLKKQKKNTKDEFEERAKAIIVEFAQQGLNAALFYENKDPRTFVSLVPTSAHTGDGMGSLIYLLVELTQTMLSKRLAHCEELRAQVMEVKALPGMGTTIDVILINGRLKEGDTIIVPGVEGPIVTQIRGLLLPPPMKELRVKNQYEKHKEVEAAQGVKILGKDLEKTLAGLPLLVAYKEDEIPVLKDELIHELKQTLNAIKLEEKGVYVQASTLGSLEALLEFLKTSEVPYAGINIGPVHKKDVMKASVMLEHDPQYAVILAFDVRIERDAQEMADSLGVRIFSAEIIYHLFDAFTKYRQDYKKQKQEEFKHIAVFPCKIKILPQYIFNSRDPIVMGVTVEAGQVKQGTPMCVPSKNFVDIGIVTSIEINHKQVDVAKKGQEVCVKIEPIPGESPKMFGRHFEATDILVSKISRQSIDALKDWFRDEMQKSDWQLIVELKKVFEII

[2] = molecular target: Atypical kinase COQ8A, mitochondrial (Homo sapiens, UniProt Q8NI60)
[3] = molecular target: Bone morphogenetic protein receptor type-1A (Homo sapiens, UniProt P36894)
[4] = molecular target: Serine/threonine-protein kinase pim-1 (Homo sapiens, UniProt P11309)
[5] = molecular target: Myosin light chain kinase, smooth muscle (Homo sapiens, UniProt Q15746)
Ephrin type-A receptor 4 = Ephrin type-A receptor 4 (Homo sapiens, UniProt P54764)
[6] = molecular target: T2, Inhibitor of nuclear factor kappa-B kinase subunit epsilon (Homo sapiens, UniProt Q14164)
T2 sequence (Q14164 whole entry): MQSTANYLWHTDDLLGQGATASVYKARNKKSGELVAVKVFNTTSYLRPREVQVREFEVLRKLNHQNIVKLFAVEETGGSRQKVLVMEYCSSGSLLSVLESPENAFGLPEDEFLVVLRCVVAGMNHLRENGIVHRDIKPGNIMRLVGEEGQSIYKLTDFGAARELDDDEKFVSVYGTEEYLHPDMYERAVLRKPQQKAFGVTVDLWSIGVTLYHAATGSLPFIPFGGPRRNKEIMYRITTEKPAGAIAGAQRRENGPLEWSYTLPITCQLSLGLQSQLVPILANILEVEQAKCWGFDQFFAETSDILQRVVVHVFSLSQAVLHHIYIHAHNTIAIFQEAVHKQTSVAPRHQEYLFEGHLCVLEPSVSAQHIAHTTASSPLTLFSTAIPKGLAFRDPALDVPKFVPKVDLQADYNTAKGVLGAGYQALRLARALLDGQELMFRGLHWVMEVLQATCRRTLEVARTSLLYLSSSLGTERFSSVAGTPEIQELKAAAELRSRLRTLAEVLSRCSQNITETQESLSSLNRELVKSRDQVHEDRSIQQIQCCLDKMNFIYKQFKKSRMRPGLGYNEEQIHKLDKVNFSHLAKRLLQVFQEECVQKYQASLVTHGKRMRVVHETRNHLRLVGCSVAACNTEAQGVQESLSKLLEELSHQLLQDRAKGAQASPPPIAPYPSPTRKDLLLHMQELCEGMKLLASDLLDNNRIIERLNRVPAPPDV

[7] = molecular target: Dual specificity mitogen-activated protein kinase kinase 1 (Homo sapiens, UniProt Q02750)
[8] = molecular target: Casein kinase I isoform gamma-1 (Homo sapiens, UniProt Q9HCP0)
[9] = molecular target: Ribosomal protein S6 kinase alpha-6 (Homo sapiens, UniProt Q9UK32)
Adenosine kinase = Adenosine kinase (Homo sapiens, UniProt P55263)
[10] = molecular target: Serine/threonine-protein kinase 16 (Homo sapiens, UniProt O75716)
ADP/ATP translocase 3 = molecular target: T3, ADP/ATP translocase 3 (Homo sapiens, UniProt P12236)
T3 sequence (P12236 whole entry): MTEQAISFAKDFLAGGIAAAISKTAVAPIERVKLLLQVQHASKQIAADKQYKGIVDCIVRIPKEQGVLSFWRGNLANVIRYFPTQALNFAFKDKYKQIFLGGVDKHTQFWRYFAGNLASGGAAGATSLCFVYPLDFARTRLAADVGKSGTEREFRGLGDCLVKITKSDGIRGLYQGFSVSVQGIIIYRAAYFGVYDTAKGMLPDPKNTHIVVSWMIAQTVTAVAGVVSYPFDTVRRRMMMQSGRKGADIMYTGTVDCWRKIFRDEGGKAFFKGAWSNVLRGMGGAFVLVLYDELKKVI
Note: in the data inactive means no Kd found up to 30 µM.

Sequence of Atypical kinase COQ8A, mitochondrial (Q8NI60 whole entry): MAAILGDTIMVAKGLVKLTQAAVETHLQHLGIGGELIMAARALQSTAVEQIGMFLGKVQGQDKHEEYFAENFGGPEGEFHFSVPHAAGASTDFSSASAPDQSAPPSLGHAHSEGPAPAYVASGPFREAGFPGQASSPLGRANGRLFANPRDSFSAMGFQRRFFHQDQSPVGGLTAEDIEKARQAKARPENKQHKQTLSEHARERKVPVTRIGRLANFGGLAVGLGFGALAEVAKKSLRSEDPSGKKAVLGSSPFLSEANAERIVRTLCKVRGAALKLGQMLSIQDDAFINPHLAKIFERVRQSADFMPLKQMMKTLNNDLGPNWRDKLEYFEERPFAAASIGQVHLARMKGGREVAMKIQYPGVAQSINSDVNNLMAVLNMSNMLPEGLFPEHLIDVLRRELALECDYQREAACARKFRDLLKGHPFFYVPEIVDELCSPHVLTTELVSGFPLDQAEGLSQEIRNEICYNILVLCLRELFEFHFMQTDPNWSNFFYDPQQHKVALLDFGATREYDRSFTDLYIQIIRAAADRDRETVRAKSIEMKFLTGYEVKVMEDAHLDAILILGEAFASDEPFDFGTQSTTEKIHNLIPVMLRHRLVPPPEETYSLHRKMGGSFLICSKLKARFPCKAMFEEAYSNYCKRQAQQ
Sequence of Bone morphogenetic protein receptor type-1A (P36894 whole entry): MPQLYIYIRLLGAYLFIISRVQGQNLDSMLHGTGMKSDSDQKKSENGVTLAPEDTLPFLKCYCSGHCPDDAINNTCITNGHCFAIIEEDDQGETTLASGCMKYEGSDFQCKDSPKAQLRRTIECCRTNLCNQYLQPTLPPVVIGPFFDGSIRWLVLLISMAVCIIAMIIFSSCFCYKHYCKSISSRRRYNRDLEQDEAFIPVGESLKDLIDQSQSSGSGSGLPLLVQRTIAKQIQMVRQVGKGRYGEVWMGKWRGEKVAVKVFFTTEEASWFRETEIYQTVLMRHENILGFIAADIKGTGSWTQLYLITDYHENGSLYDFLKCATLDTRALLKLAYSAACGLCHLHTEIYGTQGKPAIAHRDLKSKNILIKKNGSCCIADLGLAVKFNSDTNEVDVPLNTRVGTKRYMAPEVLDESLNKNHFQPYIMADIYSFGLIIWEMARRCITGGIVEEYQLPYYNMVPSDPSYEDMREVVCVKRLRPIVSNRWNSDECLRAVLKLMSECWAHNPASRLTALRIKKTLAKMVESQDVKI
Sequence of Dual specificity mitogen-activated protein kinase kinase 1 (Q02750 whole entry, canonical isoform): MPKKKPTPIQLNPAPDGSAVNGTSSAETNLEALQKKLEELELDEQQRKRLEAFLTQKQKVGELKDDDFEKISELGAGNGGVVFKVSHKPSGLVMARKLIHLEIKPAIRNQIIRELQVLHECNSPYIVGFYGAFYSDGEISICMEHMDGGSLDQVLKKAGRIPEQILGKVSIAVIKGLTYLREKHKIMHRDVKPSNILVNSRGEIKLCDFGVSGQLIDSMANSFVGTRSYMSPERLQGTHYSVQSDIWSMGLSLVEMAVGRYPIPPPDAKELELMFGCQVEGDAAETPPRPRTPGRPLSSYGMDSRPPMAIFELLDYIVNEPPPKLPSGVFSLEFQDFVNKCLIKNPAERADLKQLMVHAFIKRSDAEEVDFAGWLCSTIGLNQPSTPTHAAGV
Sequence of Myosin light chain kinase, smooth muscle (Q15746 whole entry): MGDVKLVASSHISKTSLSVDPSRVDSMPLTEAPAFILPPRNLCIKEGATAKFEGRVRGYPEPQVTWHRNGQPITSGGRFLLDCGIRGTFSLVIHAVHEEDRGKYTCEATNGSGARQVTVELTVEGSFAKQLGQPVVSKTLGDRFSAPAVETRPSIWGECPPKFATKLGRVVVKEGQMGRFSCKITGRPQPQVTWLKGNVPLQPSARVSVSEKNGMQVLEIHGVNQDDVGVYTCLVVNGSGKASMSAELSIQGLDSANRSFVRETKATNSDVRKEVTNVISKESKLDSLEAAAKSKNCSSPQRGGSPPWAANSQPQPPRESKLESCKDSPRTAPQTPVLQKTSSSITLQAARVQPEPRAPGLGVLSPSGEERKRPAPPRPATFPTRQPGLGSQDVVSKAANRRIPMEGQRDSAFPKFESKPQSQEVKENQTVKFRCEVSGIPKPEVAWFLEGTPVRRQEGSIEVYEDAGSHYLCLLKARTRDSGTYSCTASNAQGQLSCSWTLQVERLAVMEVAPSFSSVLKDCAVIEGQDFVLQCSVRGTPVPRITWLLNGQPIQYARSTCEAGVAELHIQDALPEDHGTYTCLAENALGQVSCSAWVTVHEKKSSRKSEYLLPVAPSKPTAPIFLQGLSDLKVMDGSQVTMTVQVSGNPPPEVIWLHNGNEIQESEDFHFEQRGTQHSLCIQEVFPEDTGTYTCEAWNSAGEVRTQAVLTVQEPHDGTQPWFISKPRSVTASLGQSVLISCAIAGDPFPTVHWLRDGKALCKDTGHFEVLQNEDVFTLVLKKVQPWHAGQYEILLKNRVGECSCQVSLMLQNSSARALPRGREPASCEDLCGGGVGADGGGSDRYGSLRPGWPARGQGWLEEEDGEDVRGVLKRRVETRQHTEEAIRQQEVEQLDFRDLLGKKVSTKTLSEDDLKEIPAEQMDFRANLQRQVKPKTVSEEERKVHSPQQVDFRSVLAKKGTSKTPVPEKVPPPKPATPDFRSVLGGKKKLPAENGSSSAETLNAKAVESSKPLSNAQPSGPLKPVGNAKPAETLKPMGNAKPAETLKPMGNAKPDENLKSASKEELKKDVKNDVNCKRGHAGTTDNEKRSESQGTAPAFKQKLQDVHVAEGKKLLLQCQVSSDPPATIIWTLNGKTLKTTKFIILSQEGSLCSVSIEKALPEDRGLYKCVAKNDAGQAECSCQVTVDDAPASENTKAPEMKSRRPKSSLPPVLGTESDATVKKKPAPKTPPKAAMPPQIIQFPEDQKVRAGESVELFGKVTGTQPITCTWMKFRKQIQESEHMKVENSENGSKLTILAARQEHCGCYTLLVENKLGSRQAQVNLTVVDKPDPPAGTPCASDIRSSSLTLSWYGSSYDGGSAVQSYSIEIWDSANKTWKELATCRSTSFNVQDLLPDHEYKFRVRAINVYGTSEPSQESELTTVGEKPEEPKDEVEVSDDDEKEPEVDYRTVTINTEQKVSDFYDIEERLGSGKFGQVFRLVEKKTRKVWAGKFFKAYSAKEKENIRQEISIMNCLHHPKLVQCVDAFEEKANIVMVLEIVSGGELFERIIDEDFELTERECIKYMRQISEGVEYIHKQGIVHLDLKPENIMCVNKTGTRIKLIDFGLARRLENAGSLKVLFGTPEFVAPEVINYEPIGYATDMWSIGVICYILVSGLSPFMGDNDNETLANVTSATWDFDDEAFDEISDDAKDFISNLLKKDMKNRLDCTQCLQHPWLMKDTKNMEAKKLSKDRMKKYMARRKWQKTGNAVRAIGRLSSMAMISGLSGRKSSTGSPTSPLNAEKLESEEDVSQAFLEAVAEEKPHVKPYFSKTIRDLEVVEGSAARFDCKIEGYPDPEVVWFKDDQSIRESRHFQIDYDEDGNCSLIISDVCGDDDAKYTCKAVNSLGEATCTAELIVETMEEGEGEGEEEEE
Sequence of Ephrin type-A receptor 4 (P54764 whole entry): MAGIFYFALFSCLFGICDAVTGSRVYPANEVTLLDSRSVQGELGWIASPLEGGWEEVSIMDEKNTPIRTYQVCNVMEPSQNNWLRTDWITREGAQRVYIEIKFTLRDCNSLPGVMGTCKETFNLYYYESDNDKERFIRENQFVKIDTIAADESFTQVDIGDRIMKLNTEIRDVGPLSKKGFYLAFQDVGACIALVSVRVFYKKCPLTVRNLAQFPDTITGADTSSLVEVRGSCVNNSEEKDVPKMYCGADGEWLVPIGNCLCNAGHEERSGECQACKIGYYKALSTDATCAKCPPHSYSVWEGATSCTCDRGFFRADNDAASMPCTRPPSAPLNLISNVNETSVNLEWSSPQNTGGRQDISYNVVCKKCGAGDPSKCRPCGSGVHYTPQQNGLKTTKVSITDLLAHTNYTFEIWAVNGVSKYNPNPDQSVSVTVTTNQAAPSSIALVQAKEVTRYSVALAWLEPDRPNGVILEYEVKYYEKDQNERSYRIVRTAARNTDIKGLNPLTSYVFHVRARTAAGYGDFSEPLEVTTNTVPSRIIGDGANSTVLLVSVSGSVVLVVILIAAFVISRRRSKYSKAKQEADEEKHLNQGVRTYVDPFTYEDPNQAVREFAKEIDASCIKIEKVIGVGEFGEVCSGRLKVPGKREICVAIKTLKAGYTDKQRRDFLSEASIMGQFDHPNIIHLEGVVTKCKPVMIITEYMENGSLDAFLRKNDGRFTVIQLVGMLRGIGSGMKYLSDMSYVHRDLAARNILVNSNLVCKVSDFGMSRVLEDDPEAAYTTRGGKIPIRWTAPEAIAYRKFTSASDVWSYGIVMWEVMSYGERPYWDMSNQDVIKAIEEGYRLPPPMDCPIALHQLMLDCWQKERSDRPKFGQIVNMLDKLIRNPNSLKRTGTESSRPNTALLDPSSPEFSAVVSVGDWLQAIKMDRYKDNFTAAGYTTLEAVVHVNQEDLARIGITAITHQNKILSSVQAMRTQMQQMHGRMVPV
Sequence of Adenosine kinase (P55263 whole entry): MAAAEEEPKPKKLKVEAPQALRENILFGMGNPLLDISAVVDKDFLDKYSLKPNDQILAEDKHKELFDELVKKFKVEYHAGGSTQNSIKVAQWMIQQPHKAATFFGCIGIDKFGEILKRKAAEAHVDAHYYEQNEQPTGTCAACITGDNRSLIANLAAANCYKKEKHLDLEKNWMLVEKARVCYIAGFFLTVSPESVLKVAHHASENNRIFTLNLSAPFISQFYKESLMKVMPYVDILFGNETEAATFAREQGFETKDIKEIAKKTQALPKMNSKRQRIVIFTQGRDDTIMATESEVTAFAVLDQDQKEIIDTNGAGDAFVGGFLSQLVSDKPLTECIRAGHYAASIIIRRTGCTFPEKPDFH

SMILES: CN1C/C=C/CCOc2cccc(c2)-c2ccnc(n2)Nc2cccc(c2)C1 [ZOTIRACICLIB]
Kd [1]: > 30 µM (inactive) | Kd [2]: > 30 µM (inactive) | Kd [3]: > 30 µM (inactive) | Kd [4]: > 30 µM (inactive) | Kd [5]: > 30 µM (inactive) | Kd (Ephrin type-A receptor 4): > 30 µM (inactive) | Kd [6]: > 30 µM (inactive) | Kd [7]: > 30 µM (inactive) | Kd [8]: > 30 µM (inactive) | Kd [9]: > 30 µM (inactive) | Kd (Adenosine kinase): > 30 µM (inactive) | Kd [10]: > 30 µM (inactive) | Kd (ADP/ATP translocase 3): > 30 µM (inactive)

SMILES: CC(=O)c1cnc2ccc(-c3cc(Cl)c(O)c(Cl)c3)nc2c1N[C@H]1CC[C@H](CN(C)C)CC1
Kd [1]: > 30 µM (inactive) | Kd [2]: > 30 µM (inactive) | Kd [3]: > 30 µM (inactive) | Kd [4]: 0.014 µM (active) | Kd [5]: > 30 µM (inactive) | Kd [7]: 0.968 µM (active) | Kd [8]: 0.665 µM | Kd [9]: 0.057 µM (active) | Kd (Adenosine kinase): > 30 µM (inactive) | Kd (ADP/ATP translocase 3): > 30 µM (inactive)

SMILES: Cc1nc2cc(-n3ncc(C(=O)c4cc5ccccc5[nH]4)c3N)ccc2[nH]1 [FGFR INHIBITOR DEBIO 1347]
Kd [1]: > 30 µM (inactive) | Kd [2]: > 30 µM (inactive) | Kd [3]: > 30 µM (inactive) | Kd [4]: > 30 µM (inactive) | Kd [5]: > 30 µM (inactive) | Kd (Ephrin type-A receptor 4): > 30 µM (inactive) | Kd [6]: > 30 µM (inactive) | Kd [7]: > 30 µM (inactive) | Kd [8]: > 30 µM (inactive) | Kd [9]: > 30 µM (inactive) | Kd [10]: > 30 µM (inactive) | Kd (ADP/ATP translocase 3): > 30 µM (inactive)

SMILES: N#CC1(c2ccc(NC(=O)c3cccnc3NCc3ccncc3)cc2)CCCC1 [RIVOCERANIB]
Kd [1]: > 30 µM (inactive) | Kd [2]: > 30 µM (inactive) | Kd [3]: > 30 µM (inactive) | Kd [4]: > 30 µM (inactive) | Kd [5]: > 30 µM (inactive) | Kd (Ephrin type-A receptor 4): > 30 µM (inactive) | Kd [6]: > 30 µM (inactive) | Kd [7]: > 30 µM (inactive) | Kd [8]: > 30 µM (inactive) | Kd [9]: > 30 µM (inactive) | Kd (Adenosine kinase): > 30 µM (inactive) | Kd [10]: > 30 µM (inactive) | Kd (ADP/ATP translocase 3): > 30 µM (inactive)

Other lines, results leading:

Kd [1]: > 30 µM (inactive) | Kd [2]: > 30 µM (inactive) | Kd [3]: > 30 µM (inactive) | Kd [4]: > 30 µM (inactive) | Kd [5]: > 30 µM (inactive) | Kd (Ephrin type-A receptor 4): > 30 µM (inactive) | Kd [6]: > 30 µM (inactive) | Kd [7]: > 30 µM (inactive) | Kd [8]: > 30 µM (inactive) | Kd [9]: > 30 µM (inactive) | Kd (Adenosine kinase): > 30 µM (inactive) | Kd [10]: > 30 µM (inactive) | Kd (ADP/ATP translocase 3): > 30 µM (inactive)
SMILES: Cn1cc(-c2cnc3ccc4ccc(CS(=O)(=O)NCc5ccccn5)cc4c(=O)c3c2)cn1 [MK-8033]

Kd [1]: > 30 µM (inactive) | Kd [2]: > 30 µM (inactive) | Kd [3]: 0.34 µM | Kd [4]: > 30 µM (inactive) | Kd [5]: > 30 µM (inactive) | Kd (Ephrin type-A receptor 4): > 30 µM (inactive) | Kd [6]: > 30 µM (inactive) | Kd [7]: > 30 µM (inactive) | Kd [8]: > 30 µM (inactive) | Kd [9]: > 30 µM (inactive) | Kd (Adenosine kinase): > 30 µM (inactive) | Kd [10]: > 30 µM (inactive) | Kd (ADP/ATP translocase 3): > 30 µM (inactive)
SMILES: C[C@@H](N)c1ccc(C(=O)Nc2ccnc3[nH]ccc23)cc1 [Y-39983]
